In ChEMBL document CHEMBL1159360, “Bioactive asterosaponins from the starfish Luidia quinaria and Psilaster cassiope. Isolation and structure characterization by two-dimensional NMR spectroscopy” (J Nat Prod, 2003):
The source made the active and inactive calls. No cut-off for these calls is given here.

Experiments:
RBL-2H3 = assay: Cytotoxicity against rat RBL2H3 after 24 hrs by MTT assay; format: functional, cell-based; conditions: RBL-2H3, 24 h
C6 = assay: Cytotoxicity against rat C6 after 24 hrs by MTT assay; format: functional, cell-based

| SMILES | IC50 (RBL-2H3) [µg/mL] | Activity (C6) |
| --- | --- | --- |
| CC(C)CC(=O)C[C@](C)(O)[C@H]1CC[C@H]2[C@@H]3C[C@H](O[C@@H]4O[C@H](C)[C@@H](O)[C@H](O[C@@H]5OC[C@@H](O[C@@H]6O[C@H](CO)[C@H](O)[C@H](O)[C@H]6O[C@@H]6O[C@H](C)[C@H](O)[C@H](O[C@@H]7O[C@@H](CO)[C@H](O)[C@H]7O)[C@H]6O)[C@H](O)[C@H]5O[C@@H]5O[C@H](C)[C@@H](O)[C@H](O)[C@H]5O)[C@H]4O)[C@H]4C[C@@H](OS(=O)(=O)[O-])CC[C@]4(C)C3=CC[C@@]21C.[Na+] [PSILASTEROSIDE] | 5.4 | inactive |
| CC(C)CC(=O)C[C@](C)(O)[C@H]1CC[C@H]2[C@@H]3C[C@H](O[C@@H]4O[C@H](C)[C@@H](O)[C@H](O[C@@H]5O[C@H](CO)[C@@H](O[C@@H]6O[C@H](C)[C@@H](O)[C@H](O)[C@H]6O[C@@H]6O[C@H](C)[C@H](O)[C@H](O)[C@H]6O)[C@H](O)[C@H]5O[C@@H]5O[C@H](C)[C@@H](O)[C@H](O)[C@H]5O)[C@H]4O)[C@H]4C[C@@H](OS(=O)(=O)[O-])CC[C@]4(C)C3=CC[C@@]21C.[Na+] [LUIDIAQUINOSIDE] | 31.3 | inactive |
